target: T1, Bile acid receptor (Homo sapiens, UniProt Q96RI1); assay: (§1) Effective concentration against farnesoid X receptor (FXR)
T1 sequence (Q96RI1 whole entry): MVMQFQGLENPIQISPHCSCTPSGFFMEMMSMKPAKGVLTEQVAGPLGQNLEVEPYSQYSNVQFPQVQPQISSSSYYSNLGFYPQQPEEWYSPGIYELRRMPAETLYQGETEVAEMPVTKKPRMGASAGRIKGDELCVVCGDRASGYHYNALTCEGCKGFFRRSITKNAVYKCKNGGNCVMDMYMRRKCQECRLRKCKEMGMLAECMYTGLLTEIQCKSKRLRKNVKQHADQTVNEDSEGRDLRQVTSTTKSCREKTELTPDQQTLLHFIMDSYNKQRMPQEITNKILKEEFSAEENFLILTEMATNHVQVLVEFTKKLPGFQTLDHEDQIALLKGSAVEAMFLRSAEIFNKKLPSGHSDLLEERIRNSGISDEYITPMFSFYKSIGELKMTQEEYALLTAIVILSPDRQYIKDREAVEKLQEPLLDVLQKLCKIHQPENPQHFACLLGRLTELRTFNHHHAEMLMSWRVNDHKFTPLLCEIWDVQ

| EC50 | Compound |
| --- | --- |
| 72.4 nM | COC(=O)/C=C/c1cccc(N(Cc2ccc(-c3cccc(OC)c3)cc2)C(=O)C(C)C)c1 |
| 64.6 nM | COC(=O)/C=C/c1cccc(N(Cc2ccc(/C=C/c3ccccc3)cc2)C(=O)C(C)C)c1 |
| 1320 nM | COC(=O)/C=C/c1cccc(N(Cc2ccc(-c3cccc(C)c3)cc2)C(=O)NC(C)C)c1 |
| 417 nM | COC(=O)/C=C/c1cccc(N(Cc2ccc(-c3cccc(OC(F)(F)F)c3)cc2)C(=O)C2CCCCC2)c1 |
| 70.8 nM | COC(=O)/C=C/c1cccc(N(Cc2ccc(/C=C/c3ccccc3F)cc2)C(=O)C(C)C)c1 |
| 603 nM | COC(=O)/C=C/c1cccc(N(Cc2cc(OC)cc(OC)c2)C(=O)C2CCCCC2)c1 |
| 77.6 nM | COC(=O)/C=C/c1cccc(N(Cc2ccc(-c3cccc(OC)c3)cc2)C(=O)C2CCCCC2)c1 |
| 129 nM | COC(=O)/C=C/c1cccc(N(Cc2ccc(-c3ccc(F)c(Cl)c3)cc2)C(=O)C(C)C)c1 |
| 162 nM | COC(=O)/C=C/c1cccc(N(Cc2ccc(/C=C/c3cccc(Cl)c3)cc2)C(=O)C(C)C)c1 |
| 1410 nM | COC(=O)/C=C/c1cccc(N(Cc2ccc(-c3cccc(Cl)c3)cc2)C(=O)NC(C)C)c1 |
| 1000 nM | COC(=O)/C=C/c1cccc(N(Cc2ccc(/C=C/C(=O)O)cc2)C(=O)C2CCCCC2)c1 |
| 1000 nM | COC(=O)/C=C/c1cccc(N(Cc2ccc(/C=C/C(=O)OC(C)(C)C)cc2O)C(=O)C2CCCCC2)c1 |
| 234 nM | COC(=O)/C=C/c1cccc(N(Cc2ccc(-c3cc(Cl)ccc3OC)cc2)C(=O)C2CCCCC2)c1 |
| 562 nM | COC(=O)/C=C/c1cccc(N(Cc2ccc(-c3c(OC)cccc3OC)cc2)C(=O)NC(C)C)c1 |
| 151 nM | COC(=O)/C=C/c1cccc(N(Cc2ccc(/C=C/c3c(Cl)cccc3Cl)cc2)C(=O)C2CCCCC2)c1 |
| 19.1 nM | COC(=O)/C=C/c1cccc(N(Cc2ccc(-c3ccc4c(c3)OCO4)cc2)C(=O)C(C)C)c1 |
| 1000 nM | CC(C)(C)OC(=O)/C=C/c1ccc(CN(C(=O)C2CCCCC2)c2cccc(/C=C/C(=O)OC(C)(C)C)c2)cc1 |
| 468 nM | COC(=O)/C=C/c1cccc(N(Cc2ccc(/C=C/c3cccc(F)c3)cc2)C(=O)NC(C)C)c1 |
| 166 nM | COC(=O)/C=C/c1cccc(N(Cc2ccc(/C=C/c3cccc(Cl)c3)cc2)C(=O)C2CCCCC2)c1 |
| 186 nM | COC(=O)/C=C/c1cccc(N(Cc2ccc(/C=C/c3ccc(F)cc3)cc2)C(=O)C2CCCCC2)c1 |
| 263 nM | COC(=O)/C=C/c1cccc(N(Cc2ccc(-c3ccc(OC(F)(F)F)cc3)cc2)C(=O)C2CCCCC2)c1 |

target: T1, Bile acid receptor; assay: as §1

| EC50 | Compound |
| --- | --- |
| > 1000 nM | COC(=O)/C=C/c1cccc(N(Cc2ccc(/C=C/C(=O)OC(C)(C)C)cc2OC(C)=O)C(=O)C2CCCCC2)c1 |
| > 1000 nM | COC(=O)/C=C/c1ccc(CN(C(=O)C2CCCCC2)c2cccc(/C=C/C(=O)OC)c2)cc1 |
| 227 nM | COC(=O)/C=C/c1cccc(N(Cc2ccc(/C=C/c3scnc3C)cc2)C(=O)C2CCCCC2)c1 |
| 309 nM | COC(=O)/C=C/c1cccc(N(Cc2ccc(/C=C/c3ccccn3)cc2)C(=O)C2CCCCC2)c1 |
| > 1000 nM | CCOC(=O)COc1cc(/C=C/C(=O)OC(C)(C)C)ccc1CN(C(=O)C1CCCCC1)c1cccc(/C=C/C(=O)OC)c1 |
| 206 nM | COC(=O)/C=C/c1cccc(N(Cc2ccc(-c3ccc(C)s3)cc2)C(=O)C2CCCCC2)c1 |
| > 1000 nM | COC(=O)/C=C/c1cccc(N(Cc2ccc(/C=C/C(=O)OC(C)(C)C)cc2OC(=O)c2ccccc2)C(=O)C2CCCCC2)c1 |
| 310 nM | COC(=O)/C=C/c1cccc(N(Cc2ccc(/C=C/c3ccccn3)cc2)C(=O)C(C)C)c1 |
| > 1000 nM | COC(=O)/C=C/c1cccc(N(Cc2ccc(/C=C/C(=O)O)cc2)C(=O)C2CCCCC2)c1 |
| > 1000 nM | CCOC(=O)/C=C/c1ccc(CN(C(=O)C2CCCCC2)c2cccc(/C=C/C(=O)OC)c2)cc1 |
| > 1000 nM | COC(=O)/C=C/c1cccc(N(Cc2ccc(/C=C/C(=O)OC(C)(C)C)cc2O)C(=O)C2CCCCC2)c1 |
| 77 nM | COC(=O)/C=C/c1cccc(N(Cc2ccc(-c3c(OC)cccc3OC)cc2)C(=O)C2CCCCC2)c1 |
| > 1000 nM | COC(=O)/C=C/c1cccc(N(Cc2ccc(/C=C/C(=O)N(C)C)cc2)C(=O)C2CCCCC2)c1 |
| 220 nM | CCOC/C=C/c1cccc(N(Cc2ccc(/C=C/C(=O)OC(C)(C)C)cc2)C(=O)C2CCCCC2)c1 |
| > 1000 nM | COC(=O)/C=C/c1cccc(N(Cc2ccc(/C=C/C(=O)OC(C)(C)C)cc2OCc2ccccc2)C(=O)C2CCCCC2)c1 |
| > 1000 nM | CC(C)(C)OC(=O)/C=C/c1cccc(N(Cc2ccc(CCC(=O)OC(C)(C)C)cc2)C(=O)C2CCCCC2)c1 |
| 86 nM | COC(=O)/C=C/c1cccc(N(Cc2ccc(/C=C/c3cccc(F)c3)cc2)C(=O)C2CCCCC2)c1 |

| EC50 | Compound |
| --- | --- |
| 1470 nM | COC(=O)/C=C/c1cccc(N(Cc2ccc(/C=C/c3cc(C(F)(F)F)cc(C(F)(F)F)c3)cc2)C(=O)C2CCCCC2)c1 |
| > 1000 nM | COC(=O)/C=C/c1cccc(N(Cc2ccc(/C=C/C(=O)OCc3ccccc3)cc2)C(=O)C2CCCCC2)c1 |
| 208 nM | COC(=O)/C=C/c1cccc(N(Cc2ccc(/C=C/c3ccc(OC)cc3)cc2)C(=O)C2CCCCC2)c1 |
| 38 nM | COC(=O)/C=C/c1cccc(N(Cc2ccc(-c3ccc4c(c3)OCO4)cc2)C(=O)C2CCCCC2)c1 |
| > 1000 nM | CC(C)(C)OC(=O)/C=C/c1ccc(CN(C(=O)C2CCCCC2)c2cccc(/C=C/C(N)=O)c2)cc1 |
| 228 nM | COC(=O)/C=C/c1cccc(N(Cc2ccc(/C=C/c3scnc3C)cc2)C(=O)C(C)C)c1 |
| > 1000 nM | COC(=O)/C=C/c1cccc(N(Cc2ccc(/C=C/C(=O)NC(C)(C)C)cc2)C(=O)C2CCCCC2)c1 |
| 25 nM | COC(=O)/C=C/c1cccc(N(Cc2ccc(-c3ccc(N(C)C)cc3)cc2)C(=O)C2CCCCC2)c1 [FEXARAMINE] |
| 150 nM | COC(=O)/C=C/c1cccc(N(Cc2ccc(/C=C/c3c(Cl)cccc3Cl)cc2)C(=O)C2CCCCC2)c1 |
| 243 nM | COC/C=C/c1cccc(N(Cc2ccc(/C=C/C(=O)OC(C)(C)C)cc2)C(=O)C2CCCCC2)c1 |
| 64 nM | COC(=O)/C=C/c1cccc(N(Cc2ccc(/C=C/c3ccccc3F)cc2)C(=O)C2CCCCC2)c1 |
| > 1000 nM | COC(=O)/C=C/c1cccc(N(Cc2ccc(/C=C/C(=O)OC(C)(C)C)cc2OS(C)(=O)=O)C(=O)C2CCCCC2)c1 |
| > 1000 nM | CC(C)(C)OC(=O)/C=C/c1ccc(CN(C(=O)C2CCCCC2)c2cccc(/C=C/C(=O)OC(C)(C)C)c2)cc1 |
| > 1000 nM | COC(=O)/C=C/c1cccc(N(Cc2ccc(/C=C/C(=O)OC(C)(C)C)cc2OC)C(=O)C2CCCCC2)c1 |
| 233 nM | COC/C=C/c1ccc(CN(C(=O)C2CCCCC2)c2cccc(/C=C/C(=O)OC)c2)cc1 |
| 165 nM | COC(=O)/C=C/c1cccc(N(Cc2ccc(/C=C/c3cccc(Cl)c3)cc2)C(=O)C2CCCCC2)c1 |
| 185 nM | COC(=O)/C=C/c1cccc(N(Cc2ccc(/C=C/c3ccc(F)cc3)cc2)C(=O)C2CCCCC2)c1 |
